Data as given in PubChem BioAssay AID330 (DTP/NCI, 2004).
Where “and” joins values, the source holds several entries; their conditions need not be identical. Equal values may be shown once. Inconclusive results and toxic doses are left out. Rule for the calls: active = survival T/C of 150% or more; inactive = T/C below 125% in these data.

System: P388 leukemia ip, CD2F1 mice, survival T/C
Experiment: NCI In Vivo Anticancer Drug Screen. Data for tumor model P388 Leukemia (intraperitoneal) in CD2F1 (CDF1) mice
Conditions: endpoint: median survival time, higher = longer survival
Method in brief: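 Mice carrying the transplanted tumor received test compound or vehicle. Survival was recorded in each group, and the value is the treated-group measurement divided by that of the vehicle-treated control group.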

[1] = dose: 50.0 mg/kg/injection, schedule: Q01DX005 (ip), vehicle: saline with Tween-80
[2] = dose: 100.0 mg/kg/injection, schedule: Q01DX005 (ip), vehicle: saline with Tween-80
[3] = dose: 60.0 mg/kg/injection, schedule: Q01DX005 (ip), vehicle: Klucel (hydroxypropylcellulose) (HPC)
[4] = dose: 120.0 mg/kg/injection, schedule: Q01DX005 (ip), vehicle: Klucel (hydroxypropylcellulose) (HPC)
[5] = dose: 240.0 mg/kg/injection, schedule: Q01DX005 (ip), vehicle: Klucel (hydroxypropylcellulose) (HPC)
[6] = dose: 50.0 mg/kg/injection, schedule: Q01DX005 (ip), vehicle: Klucel (hydroxypropylcellulose) (HPC)
[7] = dose: 100.0 mg/kg/injection, schedule: Q01DX005 (ip), vehicle: Klucel (hydroxypropylcellulose) (HPC)
[8] = dose: 50.0 mg/kg/injection, schedule: Q01DX009 (ip), vehicle: saline
[9] = dose: 100.0 mg/kg/injection, schedule: Q01DX009 (ip), vehicle: saline
[10] = dose: 200.0 mg/kg/injection, schedule: Q01DX009 (ip), vehicle: saline
[11] = dose: 200.0 mg/kg/injection, schedule: Q01DX005 (ip), vehicle: saline with Tween-80
[12] = dose: 50.0 mg/kg/injection, schedule: Q01DX005 (ip), vehicle: saline
[13] = dose: 100.0 mg/kg/injection, schedule: Q01DX005 (ip), vehicle: saline
[14] = dose: 200.0 mg/kg/injection, schedule: Q01DX005 (ip), vehicle: saline
[15] = dose: 100.0 mg/kg/injection, schedule: Q04DX003 (ip), vehicle: saline with Tween-80

Measured: T/C

Cc1cc(=O)[nH]c2c(C)c(N)ccc12
inactive: dose: 25.0 mg/kg/injection, schedule: Q01DX005 (ip), vehicle: saline with Tween-80 95 % of control | [1] 104 % of control | [2] 95 % of control

CC(=Nc1ccc(C)cc1N)c1c(O)cc(C)oc1=O
inactive: [3] 95 % of control | [4] 96 % of control | [5] 101 % of control

O=[N+]([O-])c1ccc(C(Nc2nncs2)Nc2nncs2)c([N+](=O)[O-])c1
inactive: [6] 97 % of control | [7] 96 % of control | dose: 200.0 mg/kg/injection, schedule: Q01DX005 (ip), vehicle: Klucel (hydroxypropylcellulose) (HPC) 100 % of control

CCOC(=O)C1OC(n2cnc3c(N)ncnc32)C(O)C1O (configuration not stated)
inactive: dose: 50.0 mg/kg/injection, schedule: Q01DX009 (ip), vehicle: saline with Tween-80 96 % of control | [8] 103 % of control | dose: 100.0 mg/kg/injection, schedule: Q01DX009 (ip), vehicle: saline with Tween-80 98 % of control | [9] 100 % of control and 106 % of control | dose: 200.0 mg/kg/injection, schedule: Q01DX009 (ip), vehicle: saline with Tween-80 124 % of control | [10] 101 % of control and 106 % of control | dose: 400.0 mg/kg/injection, schedule: Q01DX009 (ip), vehicle: saline with Tween-80 117 % of control | dose: 400.0 mg/kg/injection, schedule: Q01DX009 (ip), vehicle: saline 111 % of control

Cc1ccc(N=C(N)NN=C(c2ccc(Cl)cc2)c2ccc(Cl)cc2)cc1
inactive: dose: 25.0 mg/kg/injection, schedule: Q04DX002 (ip), vehicle: saline with Tween-80 98 % of control and 103 % of control and 107 % of control | dose: 50.0 mg/kg/injection, schedule: Q04DX002 (ip), vehicle: saline with Tween-80 100 % of control and 106 % of control and 108 % of control | dose: 100.0 mg/kg/injection, schedule: Q04DX002 (ip), vehicle: saline with Tween-80 107 % of control (2×) and 109 % of control | dose: 200.0 mg/kg/injection, schedule: Q04DX002 (ip), vehicle: saline with Tween-80 105 % of control and 118 % of control and 120 % of control

CCOC(=O)C1=C(C)NC(C)=C(C(=O)OCC)C1C
inactive: [9] 102 % of control | [10] 89 % of control

O=c1c2c(oc3ccccc13)Oc1oc3ccccc3c(=O)c1C2c1ccc2c(c1)OCO2
inactive: dose: 15.0 mg/kg/injection, schedule: Q01DX005 (ip), vehicle: saline with Tween-80 96 % of control | dose: 30.0 mg/kg/injection, schedule: Q01DX005 (ip), vehicle: saline with Tween-80 92 % of control and 96 % of control | dose: 60.0 mg/kg/injection, schedule: Q01DX005 (ip), vehicle: saline with Tween-80 91 % of control

Cc1cc(=O)n(-c2ccc(S(N)(=O)=O)cc2)c(C)c1C(=O)O
inactive: [1] 98 % of control | [2] 96 % of control | [11] 103 % of control

CCN1CC2(COC)C(O)CC(OC)C34C5CC6(O)C(O)C5C(O)(C(O)C6OC)C(C(OC)C23)C14 (configuration not stated)
inactive: dose: 25.0 mg/kg/injection, schedule: Q01DX005 (ip), vehicle: saline 114 % of control | [12] 102 % of control | [13] 107 % of control | [14] 104 % of control

O=C1CCCC(=O)OCCOCCOCCOCCOCCO1
inactive: dose: 12.5 mg/kg/injection, schedule: Q01DX009 (ip), vehicle: saline 104 % of control and 108 % of control | dose: 25.0 mg/kg/injection, schedule: Q01DX009 (ip), vehicle: saline 104 % of control and 95 % of control | [8] 104 % of control and 108 % of control and 120 % of control | [9] 105 % of control | [10] 105 % of control

CC(C)C(=O)N1CCCCCN1C(=O)C(C)C
inactive: dose: 100.0 mg/kg/injection, schedule: Q01DX001 (ip), vehicle: suspension in saline 100 % of control | dose: 200.0 mg/kg/injection, schedule: Q01DX001 (ip), vehicle: suspension in saline 95 % of control | dose: 400.0 mg/kg/injection, schedule: Q01DX001 (ip), vehicle: suspension in saline 94 % of control

CCCSC(=S)Nc1nc2ccc(C)cc2s1
inactive: dose: 100.0 mg/kg/injection, schedule: Q04DX003 (ip), vehicle: saline 100 % of control | dose: 200.0 mg/kg/injection, schedule: Q04DX003 (ip), vehicle: saline 93 % of control | dose: 400.0 mg/kg/injection, schedule: Q04DX003 (ip), vehicle: saline 101 % of control

O=C=Nc1ccc(N=Nc2ccccc2)cc1
inactive: dose: 12.5 mg/kg/injection, schedule: Q04DX003 (ip), vehicle: saline with Tween-80 97 % of control | dose: 25.0 mg/kg/injection, schedule: Q04DX003 (ip), vehicle: saline with Tween-80 90 % of control | dose: 50.0 mg/kg/injection, schedule: Q04DX003 (ip), vehicle: saline with Tween-80 90 % of control | [15] 90 % of control and 92 % of control | dose: 150.0 mg/kg/injection, schedule: Q04DX003 (ip), vehicle: saline with Tween-80 92 % of control | dose: 225.0 mg/kg/injection, schedule: Q04DX003 (ip), vehicle: saline with Tween-80 100 % of control | dose: 335.0 mg/kg/injection, schedule: Q04DX003 (ip), vehicle: saline with Tween-80 93 % of control

Cc1c(Cl)ccc2c1NC(=O)C2(O)CC(=O)c1ccccc1 (configuration not stated)
inactive: [3] 99 % of control | [4] 97 % of control | [5] 99 % of control

CCOC(=O)C1C2(C)NC(=O)C1(Cc1ccccc1)c1cc(C)c(C)cc1O2 (configuration not stated)
inactive: [1] 99 % of control | [2] 96 % of control | [11] 87 % of control

Nc1ncnc2c1ncn2C1OC(COC2C(O)C(OC3OC(CO)C(O)C(O)C3N)C(O)C(OS(=O)(=O)O)C2OC(=O)[C@@H](N)CO)C(O)C1O (some centres not stated)
inactive: dose: 0.15 mg/kg/injection, schedule: Q01DX005 (ip), vehicle: Klucel (hydroxypropylcellulose) (HPC) 101 % of control | dose: 0.31 mg/kg/injection, schedule: Q01DX005 (ip), vehicle: Klucel (hydroxypropylcellulose) (HPC) 98 % of control | dose: 0.62 mg/kg/injection, schedule: Q01DX005 (ip), vehicle: Klucel (hydroxypropylcellulose) (HPC) 100 % of control | dose: 1.25 mg/kg/injection, schedule: Q01DX005 (ip), vehicle: Klucel (hydroxypropylcellulose) (HPC) 100 % of control and 94 % of control

CC(=O)Nc1ccc(S(=O)(=O)n2c(=O)oc3cc(Br)ccc32)cc1
inactive: dose: 25.0 mg/kg/injection, schedule: Q01DX005 (ip), vehicle: Klucel (hydroxypropylcellulose) (HPC) 94 % of control | [6] 87 % of control and 90 % of control | [7] 87 % of control and 90 % of control

CC1(C)C=Cc2c(ccc(C(=O)Cc3ccccc3)c2O)O1
inactive: [1] 99 % of control | [2] 96 % of control | [11] 93 % of control

O=C1OCC23CCC4C1C42CC1(CC3)OCCO1 (configuration not stated)
inactive: [12] 99 % of control | [13] 101 % of control | [14] 98 % of control

Cc1ccc(C)[nH][nH]c(N)n1
inactive: dose: 25.0 mg/kg/injection, schedule: Q01DX009 (ip), vehicle: water 99 % of control | dose: 50.0 mg/kg/injection, schedule: Q01DX009 (ip), vehicle: water 101 % of control | dose: 100.0 mg/kg/injection, schedule: Q01DX009 (ip), vehicle: water 101 % of control

CCN(CC)CCNC(=O)c1cc(Cl)c(N)cc1OC
inactive: dose: 3.12 mg/kg/injection, schedule: Q01DX005 (ip), vehicle: water 100 % of control and 105 % of control | dose: 6.25 mg/kg/injection, schedule: Q01DX005 (ip), vehicle: water 108 % of control and 95 % of control | dose: 12.5 mg/kg/injection, schedule: Q01DX005 (ip), vehicle: water 104 % of control and 105 % of control | dose: 25.0 mg/kg/injection, schedule: Q01DX005 (ip), vehicle: water 104 % of control and 107 % of control | dose: 50.0 mg/kg/injection, schedule: Q01DX005 (ip), vehicle: water 103 % of control and 111 % of control and 122 % of control | dose: 100.0 mg/kg/injection, schedule: Q01DX005 (ip), vehicle: water 100 % of control and 106 % of control and 117 % of control

Nc1cc(S(=O)(=O)F)ccc1Cl
inactive: [15] 100 % of control | dose: 200.0 mg/kg/injection, schedule: Q04DX003 (ip), vehicle: saline with Tween-80 106 % of control

NC(=O)CCS(=O)(=O)Cc1ccccc1
inactive: [1] 98 % of control | [2] 95 % of control | [11] 93 % of control

CCSC(=Nc1nc2ccc(NC(C)=O)cc2s1)SCC
inactive: dose: 6.25 mg/kg/injection, schedule: Q01DX009 (ip), vehicle: Klucel (hydroxypropylcellulose) (HPC) 97 % of control | dose: 12.5 mg/kg/injection, schedule: Q01DX009 (ip), vehicle: Klucel (hydroxypropylcellulose) (HPC) 101 % of control | dose: 25.0 mg/kg/injection, schedule: Q01DX009 (ip), vehicle: Klucel (hydroxypropylcellulose) (HPC) 98 % of control
